Data from patent publication US9527867B2, “Antibacterial biaromatic derivatives” (Actelion Pharmaceuticals Ltd., priority 2013, dated 2016).
Converted amounts (≈) assume the structure as drawn.

Tests used:
Test in all cases: Bacterial growth minimal inhibitory concentration (broth microdilution, CLSI M7-A7)
Type in all cases: cell-based
[1] = tested on: Enterococcus faecium A949; details: multiply-resistant strain (in particular quinolone-resistant); for MIC for E. faecium A949: cation-adjusted Mueller-Hinton Broth; for MIC: Enterococcus faecium, A949, cation-adjusted Mueller-Hinton Broth, read-out: MIC for E. faecium A949
Protocol: (§1) Minimal Inhibitory Concentrations (MICs; mg/L) were determined in cation-adjusted Mueller-Hinton Broth by a microdilution method following the description given in “Methods for Dilution Antimicrobial Susceptibility Tests for Bacteria that Grow Aerobically”, Approved standard, 7th ed., Clinical and Laboratory Standards Institute (CLSI) Document M7-A7, Wayne, Pa., USA (2006).
(§2) All Example compounds were tested against several Gram positive and Gram negative bacteria. […] Staphylococcus aureus A798, Enterococcus faecium A949 and Acinetobacter baumannii T6474 are multiply-resistant strains (in particular quinolone-resistant), while Moraxella catarrhalis A894 is a quinolone-sensitive strain and Staphylococcus aureus ATCC29213 is a methicillin-sensitive and quinolone-sensitive strain.

[2] = tested on: Moraxella catarrhalis A894; details: quinolone-sensitive strain; for MIC for M. catarrhalis A894: cation-adjusted Mueller-Hinton Broth; for MIC: Moraxella catarrhalis, A894, cation-adjusted Mueller-Hinton Broth
Protocol: as §1, §2

[3] = tested on: Staphylococcus aureus A798; details: multiply-resistant strain (in particular quinolone-resistant); for MIC for S. aureus A798: cation-adjusted Mueller-Hinton Broth; for MIC: Staphylococcus aureus, A798, cation-adjusted Mueller-Hinton Broth, read-out: MIC for S. aureus A798
Protocol: as §1, §2

[4] = tested on: Acinetobacter baumannii T6474; details: multiply-resistant strain (in particular quinolone-resistant); for MIC for A. baumannii T6474: cation-adjusted Mueller-Hinton Broth; for MIC: Acinetobacter baumannii, T6474, cation-adjusted Mueller-Hinton Broth
Protocol: as §1, §2

[5] = tested on: Staphylococcus aureus ATCC29213; details: methicillin-sensitive and quinolone-sensitive strain; for MIC for S. aureus ATCC29213: cation-adjusted Mueller-Hinton Broth; for MIC: Staphylococcus aureus, ATCC29213, cation-adjusted Mueller-Hinton Broth, read-out: MIC for S. aureus ATCC29213
Protocol: as §1, §2

Row | Compound | MIC for E. faecium A949 [1] [µg/mL] | MIC for M. catarrhalis A894 [2] | MIC for S. aureus A798 [3] [µg/mL] | MIC for A. baumannii T6474 [4] [µg/mL] | MIC for S. aureus ATCC29213 [5] [µg/mL] | MIC [1] [µg/mL] | MIC [2] [µg/mL] | MIC [3] [µg/mL] | MIC [4] [µg/mL] | MIC [5] [µg/mL]
1 | 6-(5-{2-[(3′-methoxy-biphenyl-3-ylmethyl)-amino]-ethyl}-2-oxo-oxazol-3-yl)-4H-pyrido[3,2-b][1,4]oxazin-3-one [Example 34] | 1 | ≦0.016 mg/L | 0.125 | 0.25 | 0.125 | – | – | – | – | –
2 | 6-((R)-5-{2-[3-(6-methoxy-pyridin-2-yl)-benzylamino]-ethyl}-2-oxo-oxazolidin-3-yl)-4H-pyrido[3,2-b][1,4]oxazin-3-one [Example 31] | 2 | ≦0.016 mg/L | 0.25 | 0.5 | 0.25 | – | – | – | – | –
3 | O=C1COc2ccc(N3C[C@H](CCNCc4cccc(-c5cccc(N6CCC(O)C6)n5)c4)OC3=O)nc2N1 (mixture of isomers) [Example 57, 6-[(S)-5-(2-{3-[6-((RS)-3-hydroxy-pyrrolidin-1-yl)-pyridin-2-yl]-benzylamino}-ethyl)-2-oxo-oxazolidin-3-yl]-4H-pyrido[3,2-b][1,4]oxazin-3-one] | – | – | – | – | – | 8 | 0.25 | 1 | 2 | 2
4 | O=C1COc2ccc(N3C[C@H](CCNCc4cccc(-c5cccc(OC[C@@H]6C[C@@H](O)[C@@H](O)C6)n5)c4)OC3=O)nc2N1 (racemic) [Example 69, 6-[(S)-5-(2-{3-[6-((1rs,3R,4S)-3,4-dihydroxy-cyclopentylmethoxy)-pyridin-2-yl]-benzylamino}-ethyl)-2-oxo-oxazolidin-3-yl]-4H-pyrido[3,2-b][1,4]oxazin-3-one] | 8 | 0.063 µg/mL | 0.25 | 1 | 1 | – | – | – | – | –
5 | COc1cccc(-c2cccc(CNCC[C@@H]3CN(c4ccc5c(c4)NC(=O)CS5)C(=O)O3)c2)c1 [Example 1, 6-((R)-5-{2-[(3′-methoxy-biphenyl-3-ylmethyl)-amino]-ethyl}-2-oxo-oxazolidin-3-yl)-4H-benzo[1,4]thiazin-3-one] | – | – | – | – | – | 2 (≈ 4.08 µM) | 0.031 (≈ 0.0633 µM) | 0.25 (≈ 0.511 µM) | 0.5 (≈ 1.02 µM) | 0.25 (≈ 0.511 µM)
6 | COc1cc(C#N)cc(-c2cccc(CNCC[C@@H]3CN(c4ccc5c(c4)NC(=O)CS5)C(=O)O3)c2)n1 [Example 2, 2-methoxy-6-[3-({2-[(R)-2-oxo-3-(3-oxo-3,4-dihydro-2H-benzo[1,4]thiazin-6-yl)-oxazolidin-5-yl]-ethylamino}-methyl)-phenyl]-isonicotinonitrile] | – | – | – | – | – | 0.5 (≈ 0.97 µM) | ≤ 0.016 | ≤ 0.016 | 0.25 (≈ 0.485 µM) | ≤ 0.016
7 | N#Cc1cccc(-c2cccc(CNCC[C@H]3CN(c4ccc5c(c4)NC(=O)CS5)C(=O)O3)c2)c1 [Example 3, 3′-({2-[(S)-2-oxo-3-(3-oxo-3,4-dihydro-2H-benzo[1,4]thiazin-6-yl)-oxazolidin-5-yl]-ethylamino}-methyl)-biphenyl-3-carbonitrile] | – | – | – | – | – | 0.5 (≈ 1.03 µM) | ≤ 0.016 | 0.063 (≈ 0.13 µM) | 0.125 (≈ 0.258 µM) | 0.063 (≈ 0.13 µM)
8 | COc1cccc(-c2cccc(CNCC[C@H]3CN(c4ccc5c(n4)NC(=O)CO5)C(=O)O3)c2)c1 [Example 4, 6-((S)-5-{2-[(3′-methoxy-biphenyl-3-ylmethyl)-amino]-ethyl}-2-oxo-oxazolidin-3-yl)-4H-pyrido[3,2-b][1,4]oxazin-3-one] | – | – | – | – | – | 4 (≈ 8.43 µM) | 0.031 (≈ 0.0653 µM) | 0.25 (≈ 0.527 µM) | 0.5 (≈ 1.05 µM) | 0.25 (≈ 0.527 µM)
9 | N#Cc1cccc(-c2cccc(CNCC[C@@H]3CN(c4ccc5c(c4)NC(=O)CS5)C(=O)O3)c2)c1 [Example 5, 3′-({2-[(R)-2-oxo-3-(3-oxo-3,4-dihydro-2H-benzo[1,4]thiazin-6-yl)-oxazolidin-5-yl]-ethylamino}-methyl)-biphenyl-3-carbonitrile] | – | – | – | – | – | 1 (≈ 2.06 µM) | ≤ 0.016 | 0.063 (≈ 0.13 µM) | 0.125 (≈ 0.258 µM) | 0.063 (≈ 0.13 µM)
10 | COc1ccc(-c2cccc(CNCC[C@@H]3CN(c4ccc5c(c4)NC(=O)CS5)C(=O)O3)c2)cc1 [Example 6, 6-((R)-5-{2-[(4′-methoxy-biphenyl-3-ylmethyl)-amino]-ethyl}-2-oxo-oxazolidin-3-yl)-4H-benzo[1,4]thiazin-3-one] | – | – | – | – | – | 4 (≈ 8.17 µM) | 0.063 (≈ 0.129 µM) | 1 (≈ 2.04 µM) | 4 (≈ 8.17 µM) | 1 (≈ 2.04 µM)
11 | COc1cc(-c2cccc(CNCC[C@@H]3CN(c4ccc5c(c4)NC(=O)CS5)C(=O)O3)c2)ccc1O [Example 7, 6-((R)-5-{2-[(4′-hydroxy-3′-methoxy-biphenyl-3-ylmethyl)-amino]-ethyl}-2-oxo-oxazolidin-3-yl)-4H-benzo[1,4]thiazin-3-one] | – | – | – | – | – | 4 (≈ 7.91 µM) | 0.063 (≈ 0.125 µM) | 0.5 (≈ 0.989 µM) | 1 (≈ 1.98 µM) | 0.5 (≈ 0.989 µM)
12 | COc1ccc(C#N)c(-c2cccc(CNCC[C@@H]3CN(c4ccc5c(c4)NC(=O)CS5)C(=O)O3)c2)c1 [Example 8, 5-methoxy-3′-({2-[(R)-2-oxo-3-(3-oxo-3,4-dihydro-2H-benzo[1,4]thiazin-6-yl)-oxazolidin-5-yl]-ethylamino}-methyl)-biphenyl-2-carbonitrile] | – | – | – | – | – | 1 (≈ 1.94 µM) | ≤ 0.016 | 0.063 (≈ 0.122 µM) | 0.25 (≈ 0.486 µM) | 0.063 (≈ 0.122 µM)
13 | COc1cc(C#N)cc(-c2cccc(CNCC[C@@H]3CN(c4ccc5c(c4)NC(=O)CS5)C(=O)O3)c2)c1 [Example 9, 5-methoxy-3′-({2-[(R)-2-oxo-3-(3-oxo-3,4-dihydro-2H-benzo[1,4]thiazin-6-yl)-oxazolidin-5-yl]-ethylamino}-methyl)-biphenyl-3-carbonitrile] | – | – | – | – | – | 1 (≈ 1.94 µM) | ≤ 0.016 | 0.031 (≈ 0.0602 µM) | 0.25 (≈ 0.486 µM) | 0.031 (≈ 0.0602 µM)
14 | COc1cc(O)cc(-c2cccc(CNCC[C@@H]3CN(c4ccc5c(c4)NC(=O)CS5)C(=O)O3)c2)c1 [Example 10, 6-((R)-5-{2-[(3′-hydroxy-5′-methoxy-biphenyl-3-ylmethyl)-amino]-ethyl}-2-oxo-oxazolidin-3-yl)-4H-benzo[1,4]thiazin-3-one] | – | – | – | – | – | 8 (≈ 15.8 µM) | ≤ 0.016 | 0.5 (≈ 0.989 µM) | 0.5 (≈ 0.989 µM) | 0.5 (≈ 0.989 µM)
15 | COc1cccc(-c2cc(CNCC[C@@H]3CN(c4ccc5c(c4)NC(=O)CS5)C(=O)O3)ccc2F)c1 [Example 11, 6-((R)-5-{2-[(6-fluoro-3′-methoxy-biphenyl-3-ylmethyl)-amino]-ethyl}-2-oxo-oxazolidin-3-yl)-4H-benzo[1,4]thiazin-3-one] | – | – | – | – | – | 8 (≈ 15.8 µM) | 0.125 (≈ 0.246 µM) | 1 (≈ 1.97 µM) | 2 (≈ 3.94 µM) | 1 (≈ 1.97 µM)
16 | COc1cccc(-c2cccc(CNCC[C@@H]3CN(c4ccc5c(c4)NC(=O)CS5)C(=O)O3)c2F)c1 [Example 12, 6-((R)-5-{2-[(2-fluoro-3′-methoxy-biphenyl-3-ylmethyl)-amino]-ethyl}-2-oxo-oxazolidin-3-yl)-4H-benzo[1,4]thiazin-3-one] | – | – | – | – | – | 2 (≈ 3.94 µM) | 0.063 (≈ 0.124 µM) | 0.5 (≈ 0.985 µM) | 2 (≈ 3.94 µM) | 0.5 (≈ 0.985 µM)
17 | COc1cncc(-c2cccc(CNCC[C@@H]3CN(c4ccc5c(c4)NC(=O)CS5)C(=O)O3)c2)c1 [Example 13, 6-((R)-5-{2-[3-(5-methoxy-pyridin-3-yl)-benzylamino]-ethyl}-2-oxo-oxazolidin-3-yl)-4H-benzo[1,4]thiazin-3-one] | – | – | – | – | – | 1 (≈ 2.04 µM) | ≤ 0.016 | 0.063 (≈ 0.128 µM) | 0.125 (≈ 0.255 µM) | 0.063 (≈ 0.128 µM)
18 | COc1ccnc(-c2cccc(CNCC[C@@H]3CN(c4ccc5c(c4)NC(=O)CS5)C(=O)O3)c2)c1 [Example 14, 6-((R)-5-{2-[3-(4-methoxy-pyridin-2-yl)-benzylamino]-ethyl}-2-oxo-oxazolidin-3-yl)-4H-benzo[1,4]thiazin-3-one] | – | – | – | – | – | 2 (≈ 4.08 µM) | ≤ 0.016 | 0.125 (≈ 0.255 µM) | 0.25 (≈ 0.51 µM) | 0.125 (≈ 0.255 µM)
19 | COc1cccc(-c2cccc(CNCC[C@@H]3CN(c4ccc5c(c4)NC(=O)CS5)C(=O)O3)c2)n1 [Example 15, 6-((R)-5-{2-[3-(6-methoxy-pyridin-2-yl)-benzylamino]-ethyl}-2-oxo-oxazolidin-3-yl)-4H-benzo[1,4]thiazin-3-one] | – | – | – | – | – | 0.5 (≈ 1.02 µM) | ≤ 0.016 | 0.031 (≈ 0.0632 µM) | 0.125 (≈ 0.255 µM) | 0.063 (≈ 0.128 µM)
20 | COc1ccc(-c2cccc(CNCC[C@@H]3CN(c4ccc5c(c4)NC(=O)CS5)C(=O)O3)c2)cn1 [Example 16, 6-((R)-5-{2-[3-(6-methoxy-pyridin-3-yl)-benzylamino]-ethyl}-2-oxo-oxazolidin-3-yl)-4H-benzo[1,4]thiazin-3-one] | – | – | – | – | – | 2 (≈ 4.08 µM) | 0.063 (≈ 0.128 µM) | 0.5 (≈ 1.02 µM) | 1 (≈ 2.04 µM) | 0.5 (≈ 1.02 µM)
